In brackets after ≈: the same amount, converted by molar mass. Several values for one entry are separate records, joined by “and”; a condition that tells them apart may be missing. Equal values may be shown once. Entries after “also recorded” stand apart in the source; their conditions may differ. Read-outs that look alike come from different tables or passages of the source.
How the values were obtained:
[1] = system: C48-resistant Mtb H37Rv mutants; type: cell-based, Mycobacterium tuberculosis; conditions: for susceptibility of C48-resistant mutants: compared with parent strain
WT H37Rv = type: cell-based, Mycobacterium tuberculosis
[2] = system: H37Rv ΔbioA TetON-5 (BioA-UE); type: cell-based; conditions: Fig. 2C
[3] = system: H37Rv ΔbioA TetON-1 (BioA-OE); type: cell-based; conditions: for normalized growth (no drug = 100): Fig. 2C, BioA-OE
[4] = system: drug sensitive and resistant Mtb isolates; assay: microbe, parasite or virus in culture; type: cell-based; conditions: Mycobacterium tuberculosis
[5] = M. tb CRC clinical strain K5072429, DS

O=C1CCc2cc(N3CCN(C(=O)c4ccc(F)c(Br)c4)CC3)ncc21 [C48]
MIC shift compared to WT [1]: Large; also recorded: Medium
increase in MIC of 30 resistant mutants compared to WT H37Rv [1]: approximately 300 fold
resistance level of bioA mutant Met91Ile [1]: high-level resistance
resistance level of bioA mutants Met91Val, Met91Thr, Cys168Tyr [1]: medium-level resistance
frequency of spontaneously resistant mutants (WT H37Rv): approximately 3×10^−8
normalized growth (no drug = 100) ([2]; [C48] 0.02 µM): 85.8582 and 52.7583 and 51.6425
normalized growth (no drug = 100) ([2]; [C48] 0.0434 µM): 81.0305 and 46.7008 and 49.5132
normalized growth (no drug = 100) ([2]; [C48] 0.443 µM): 0.2448 and 0.3701 and 0.3017
normalized growth (no drug = 100) ([2]; [C48] 4.52 µM): 0.6433 and 0.5522 and 0.8369
normalized growth (no drug = 100) ([2]; [C48] 21.3 µM): 0.723 and 0.8369 and 1.008
normalized growth (no drug = 100) ([2]; [C48] 46.1 µM): 1.133 and 0.9394 and 1.076
normalized growth (no drug = 100) ([2]; [C48] 100 µM): 0.9037 and 0.9849 and 0.9735
potency with increasing expression of BioA ([3]; ATc-inducible BioA overexpression): decreases monotonically
normalized growth (no drug = 100) ([3]; [C48] 0.02 µM): 99.1764 and 99.8577 and 98.7033
normalized growth (no drug = 100) ([3]; [C48] 0.0434 µM): 95.2869 and 101.385 and 96.6682
normalized growth (no drug = 100) ([3]; [C48] 0.0941 µM): 94.175 and 96.4099 and 95.7333
normalized growth (no drug = 100) ([3]; [C48] 0.204 µM): 92.9284 and 86.8526 and 87.9532
normalized growth (no drug = 100) ([3]; [C48] 0.443 µM): 34.2705 and 25.7913 and 36.1572
normalized growth (no drug = 100) ([3]; [C48] 0.96 µM): 3.4759 and 3.24 and 3.555
normalized growth (no drug = 100) ([3]; [C48] 4.52 µM): 1.679 and 2.083 and 1.432
normalized growth (no drug = 100) ([3]; [C48] 21.3 µM): 2.409 and 2.139 and 2.1956
normalized growth (no drug = 100) ([3]; [C48] 46.1 µM): 1.96 and 2.297 and 2.072
normalized growth (no drug = 100) ([3]; [C48] 100 µM): 1.477 and 2.083 and 1.862
MIC [4, 5]: < 0.024 µM
MIC ([4]; M. tb Erdman, DS): 0.024 µM (≈ 0.01 µg/mL)
MIC ([4]; M. tb HN878, DS): 0.0156 µM (≈ 0.00652 µg/mL)
MIC ([4]; M. tb K03b00DS, DS): 0.047 µM (≈ 0.0197 µg/mL)
MIC ([4]; M. tb K04b00DS, DS): 0.023 µM (≈ 0.00962 µg/mL)
MIC ([4]; M. tb K05b00DS, DS): 0.0156 µM (≈ 0.00652 µg/mL)
MIC ([4]; M. tb K07b00DS, DS): 0.023 µM (≈ 0.00962 µg/mL)
MIC ([4]; M. tb K08b00DS, DS): < 0.024 µM
MIC ([4]; M. tb K09b00DS, DS): 0.023 µM (≈ 0.00962 µg/mL)
MIC ([4]; M. tb K10b00DS, DS): < 0.024 µM
MIC ([4]; M. tb K11b00DS, DS): 0.0625 µM (≈ 0.0261 µg/mL)
MIC ([4]; M. tb K12b00DS, DS): 0.023 µM (≈ 0.00962 µg/mL)
MIC ([4]; M. tb K13b00DS, DS): 0.023 µM (≈ 0.00962 µg/mL)
MIC ([4]; M. tb K14b00DS, DS): 0.0156 µM (≈ 0.00652 µg/mL)
MIC ([4]; M. tb K15b00DS, DS): < 0.024 µM
MIC ([4]; M. tb K16b00DS, DS): < 0.024 µM
MIC ([4]; M. tb K17b00DS, DS): < 0.024 µM
MIC ([4]; M. tb K35b00DS, DS): < 0.024 µM
MIC ([4]; M. tb NIH1B314, DR): 0.0313 µM (≈ 0.0131 µg/mL)
MIC ([4]; M. tb NIH_G1DS, DS): < 0.024 µM
MIC ([4]; M. tb NIH_G9R, DR): 0.0156 µM (≈ 0.00652 µg/mL)
MIC ([4]; M. tb NIH_G10R, DR): 0.0313 µM (≈ 0.0131 µg/mL)
MIC ([4]; M. tb NIH_G11R, DR): 0.0156 µM (≈ 0.00652 µg/mL)
MIC ([4]; M. tb NIH_G12, DS): < 0.024 µM
MIC ([4]; M. tb NIH_G16R, DR): < 0.024 µM
MIC ([4]; M. tb NIH_G17R, DR): < 0.024 µM
MIC ([4]; M. tb NIH_G22R, DR): < 0.024 µM
MIC ([4]; M. tb NIH_GA36, DS): < 0.024 µM
MIC ([4]; M. tb NIH_SA3, DS): < 0.024 µM
MIC ([4]; M. tb NIH_SA23, DS): < 0.024 µM
MIC ([4]; M. tb NIH_SA27, DS): < 0.024 µM
MIC ([4]; M. tb NIH_SA39, DS): < 0.024 µM
MIC ([4]; M. tb NIH_SA43, DS): < 0.024 µM
MIC ([4]; M. tb NIH_SA125, DS): < 0.024 µM

NNC(=O)c1ccncc1 [INH, isoniazid, reference compound]
susceptibility of C48-resistant mutants [1]: retained susceptibility

CC(=O)NC[C@H]1CN(c2ccc(N3CCOCC3)c(F)c2)C(=O)O1 [Linezolid, reference compound]
MIC ([4]; M. tb CDC1551, DS): 1.2 µM (≈ 0.405 µg/mL)
MIC [4, 5]: 1.2 µM (≈ 0.405 µg/mL)
MIC ([4]; M. tb Erdman, DS): 1.6 µM (≈ 0.54 µg/mL)
MIC ([4]; M. tb K03b00DS, DS): 2.3 µM (≈ 0.776 µg/mL)
MIC ([4]; M. tb K04b00DS, DS): 1.2 µM (≈ 0.405 µg/mL)
MIC ([4]; M. tb K07b00DS, DS): 2.3 µM (≈ 0.776 µg/mL)
MIC ([4]; M. tb K09b00DS, DS): 1.2 µM (≈ 0.405 µg/mL)
MIC ([4]; M. tb K13b00DS, DS): 1.2 µM (≈ 0.405 µg/mL)
MIC ([4]; M. tb K14b00DS, DS): 1.2 µM (≈ 0.405 µg/mL)
MIC ([4]; M. tb K35b00DS, DS): 1.2 µM (≈ 0.405 µg/mL)
MIC ([4]; M. tb NIH_G1DS, DS): 2.3 µM (≈ 0.776 µg/mL)
MIC ([4]; M. tb NIH_G9R, DR): 2.3 µM (≈ 0.776 µg/mL)
MIC ([4]; M. tb NIH_G11R, DR): 2.3 µM (≈ 0.776 µg/mL)
MIC ([4]; M. tb NIH_G12, DS): 2.3 µM (≈ 0.776 µg/mL)
MIC ([4]; M. tb NIH_G16R, DR): 3.13 µM (≈ 1.06 µg/mL)
MIC ([4]; M. tb NIH_G17R, DR): 3.13 µM (≈ 1.06 µg/mL)
MIC ([4]; M. tb NIH_G22R, DR): 3.13 µM (≈ 1.06 µg/mL)
MIC ([4]; M. tb NIH_GA36, DS): 1.6 µM (≈ 0.54 µg/mL)

CO[C@H]1/C=C/O[C@@]2(C)Oc3c(C)c(O)c4c(O)c(c(/C=N/N5CCN(C)CC5)c(O)c4c3C2=O)NC(=O)/C(C)=C\C=C\[C@H](C)[C@H](O)[C@@H](C)[C@@H](O)[C@@H](C)[C@H](OC(C)=O)[C@@H]1C [Rifampicin, rifampicin, reference compound]
susceptibility of C48-resistant mutants [1]: retained susceptibility

From publication doi:10.1101/2025.09.24.678246 (bioRxiv, 2025)
